Reference: patent US20020035061A1, “COMPOSITIONS AND METHODS FOR TREATING INFECTIONS USING CATIONIC PEPTIDES ALONE OR IN COMBINATION WITH ANTIBIOTICS” (priority 1996, published 2002)
Where “and” joins values, the source holds several entries; their conditions need not be identical. Equal values may be shown once. Read-outs that look alike come from different tables or passages of the source.

Legend:
S. maltophilia = assay type: cell-based
E. faecium = assay type: cell-based; details: E. faecium strain EFM001
E. cloacae = assay type: cell-based
H. influenzae = assay: Agarose dilution assay (MIC); assay type: cell-based; details: H. influenzae strain HIN002
S. aureus = assay type: cell-based; details: for MIC, Peptide: unmodified parent peptide
bacterial isolates = assay: microbe, parasite or virus in culture; assay type: cell-based
E. faecalis = assay type: cell-based; details: for MIC, Peptide: unmodified parent peptide
[1] = system: MSSA (Smith, ATCC # 19640); assay: In vivo efficacy, MSSA infection; design: species or system S. aureus; details: formulation D, 60 min post-infection, end of eight day observation
S. marcescens = assay type: cell-based

## ILRWPWWPWRRK [MBI 11B7CN]
S. maltophilia; S. maltophilia SMA002, unmodified parent peptide
  MIC, Peptide: 16 µg/mL
S. maltophilia; S. maltophilia strain SMA004
  MIC: 128 µg/mL
E. faecium
  MIC: 4 µg/mL
E. cloacae; E. cloacae ECL007, unmodified parent peptide
  MIC, Peptide: 128 µg/mL
E. cloacae; E. cloacae strain ECL0009
  MIC: 32 µg/mL
H. influenzae
  MIC: >128 µg/mL
S. aureus; S. aureus SA010
  MIC, Peptide: 1 µg/mL
S. aureus; S. aureus SA011
  MIC, Peptide: 4 µg/mL
S. aureus; S. aureus SA014
  MIC, Peptide: 2 µg/mL
S. aureus; S. aureus SA018
  MIC, Peptide: 16 µg/mL
S. aureus; S. aureus SA025
  MIC, Peptide: 1 µg/mL
S. aureus; S. aureus SA093
  MIC, Peptide: 1 µg/mL
S. aureus; S. aureus strain SA009
  MIC: 2 µg/mL
Bacterial isolates; 2. Ceftriaxone, A. baumannii ABI002
  Peptide MIC Alone: 32 µg/mL
Bacterial isolates; 2. Ceftriaxone, A. baumannii ABI006
  Peptide MIC Alone: 32 µg/mL
Bacterial isolates; 2. Ceftriaxone, B. cepacia BC003
  Peptide MIC Alone: >128 µg/mL
Bacterial isolates; 2. Ceftriaxone, P. aeruginosa PA008
  Peptide MIC Alone: 128 µg/mL
Bacterial isolates; 2. Ceftriaxone, P. aeruginosa PA024
  Peptide MIC Alone: >128 µg/mL
Bacterial isolates; 2. Ceftriaxone, S. maltophilia SMA020
  Peptide MIC Alone: 16 µg/mL
Bacterial isolates; 2. Ceftriaxone, S. maltophilia SMA021
  Peptide MIC Alone: 32 µg/mL
Bacterial isolates; 2. Ceftriaxone, S. maltophilia SMA023
  Peptide MIC Alone: 128 µg/mL
Bacterial isolates; A. baumannii ABI002
  Ceftriaxone MIC + Peptide: 8 µg/mL
  Peptide MIC + Ceftriaxone: 8 µg/mL
Bacterial isolates; A. baumannii ABI006
  Ceftriaxone MIC + Peptide: 16 µg/mL
Bacterial isolates; B. cepacia BC003
  Ceftriaxone MIC + Peptide: 16 µg/mL
Bacterial isolates; E. cloacae 6
  Peptide MIC + Piperacillin: 16 µg/mL
  Piperacillin MIC + Peptide: 16 µg/mL
Bacterial isolates; E. cloacae 6, Piperacillin section
  Peptide MIC Alone: 32 µg/mL
Bacterial isolates; E. cloacae 9
  Peptide MIC + Piperacillin: 16 µg/mL
  Piperacillin MIC + Peptide: 1 µg/mL
Bacterial isolates; E. cloacae 9, Piperacillin section
  Peptide MIC Alone: 32 µg/mL
Bacterial isolates; E. cloacae 10
  Peptide MIC + Piperacillin: 16 µg/mL
  Piperacillin MIC + Peptide: 0.5 µg/mL
Bacterial isolates; E. cloacae 10, Piperacillin section
  Peptide MIC Alone: 32 µg/mL
Bacterial isolates; H. influenzae 1
  Peptide MIC + Piperacillin: 0.125 µg/mL
  Piperacillin MIC + Peptide: 32 µg/mL
Bacterial isolates; H. influenzae 1, Piperacillin section
  Peptide MIC Alone: >128 µg/mL
Bacterial isolates; H. influenzae SB1
  Peptide MIC + Piperacillin: 0.125 µg/mL
  Piperacillin MIC + Peptide: 0.25 µg/mL
Bacterial isolates; H. influenzae SB1, Piperacillin section
  Peptide MIC Alone: >128 µg/mL
Bacterial isolates; P. aeruginosa 23
  Peptide MIC + Piperacillin: 64 µg/mL
  Piperacillin MIC + Peptide: 2 µg/mL
Bacterial isolates; P. aeruginosa 23, Piperacillin section
  Peptide MIC Alone: 128 µg/mL
Bacterial isolates; P. aeruginosa PA008
  Ceftriaxone MIC + Peptide: 16 µg/mL
  Peptide MIC + Ceftriaxone: 16 µg/mL
Bacterial isolates; P. aeruginosa PA024
  Ceftriaxone MIC + Peptide: 32 µg/mL
  Peptide MIC + Ceftriaxone: 0.125 µg/mL
Bacterial isolates; S. aureus 19 MRSA
  Peptide MIC + Piperacillin: 1 µg/mL
  Piperacillin MIC + Peptide: 32 µg/mL
Bacterial isolates; S. aureus 19 MRSA, Piperacillin section
  Peptide MIC Alone: 4 µg/mL
Bacterial isolates; S. maltophilia 5
  Peptide MIC + Piperacillin: 64 µg/mL
  Piperacillin MIC + Peptide: 64 µg/mL
Bacterial isolates; S. maltophilia 5, Piperacillin section
  Peptide MIC Alone: >128 µg/mL
Bacterial isolates; S. maltophilia 9
  Peptide MIC + Piperacillin: 64 µg/mL
  Piperacillin MIC + Peptide: 64 µg/mL
Bacterial isolates; S. maltophilia 9, Piperacillin section
  Peptide MIC Alone: >128 µg/mL
Bacterial isolates; S. maltophilia 11
  Peptide MIC + Piperacillin: 32 µg/mL
  Piperacillin MIC + Peptide: 64 µg/mL
Bacterial isolates; S. maltophilia 11, Piperacillin section
  Peptide MIC Alone: >128 µg/mL
Bacterial isolates; S. maltophilia SMA020
  Ceftriaxone MIC + Peptide: 64 µg/mL
  Peptide MIC + Ceftriaxone: 8 µg/mL
Bacterial isolates; S. maltophilia SMA021
  Ceftriaxone MIC + Peptide: 64 µg/mL
  Peptide MIC + Ceftriaxone: 8 µg/mL
Bacterial isolates; S. maltophilia SMA023
  Ceftriaxone MIC + Peptide: 32 µg/mL
  Peptide MIC + Ceftriaxone: 16 µg/mL
Bacterial isolates; S. marcescens 1
  Peptide MIC + Piperacillin: 4 µg/mL
  Piperacillin MIC + Peptide: 8 µg/mL
Bacterial isolates; S. marcescens 1, Piperacillin section
  Peptide MIC Alone: >128 µg/mL
Bacterial isolates; peptide + Ceftriaxone, A. baumannii ABI002
  FIC: 0.50
Bacterial isolates; peptide + Ceftriaxone, A. baumannii ABI006
  FIC: 0.25
Bacterial isolates; peptide + Ceftriaxone, B. cepacia BC003
  FIC: 0.52
Bacterial isolates; peptide + Ceftriaxone, P. aeruginosa PA008
  FIC: 0.25
Bacterial isolates; peptide + Ceftriaxone, P. aeruginosa PA024
  FIC: 0.50
Bacterial isolates; peptide + Ceftriaxone, S. maltophilia SMA020
  FIC: 0.75
Bacterial isolates; peptide + Ceftriaxone, S. maltophilia SMA021
  FIC: 0.50
Bacterial isolates; peptide + Ceftriaxone, S. maltophilia SMA023
  FIC: 0.38
Bacterial isolates; peptide + Piperacillin, E. cloacae 6
  FIC: 0.56
Bacterial isolates; peptide + Piperacillin, E. cloacae 9
  FIC: 0.50
Bacterial isolates; peptide + Piperacillin, E. cloacae 10
  FIC: 0.50
Bacterial isolates; peptide + Piperacillin, H. influenzae 1
  FIC: 0.50
Bacterial isolates; peptide + Piperacillin, H. influenzae SB1
  FIC: 0.50
Bacterial isolates; peptide + Piperacillin, P. aeruginosa 23
  FIC: 0.56
Bacterial isolates; peptide + Piperacillin, S. aureus 19 MRSA
  FIC: 0.50
Bacterial isolates; peptide + Piperacillin, S. maltophilia 5
  FIC: 0.50
Bacterial isolates; peptide + Piperacillin, S. maltophilia 9
  FIC: 0.50
Bacterial isolates; peptide + Piperacillin, S. maltophilia 11
  FIC: 0.38
Bacterial isolates; peptide + Piperacillin, S. marcescens 1
  FIC: 0.27
E. faecalis; E. faecalis EFS004
  MIC, Peptide: 8 µg/mL
E. faecalis; E. faecalis EFS008
  MIC, Peptide: 2 µg/mL and 4 µg/mL
E. faecalis; E. faecalis strain EFS004
  MIC: 4 µg/mL
[1]; 12 mg/kg ip
  % Survival: 0%
[1]; 18 mg/kg ip
  % Survival: 10%
[1]; 24 mg/kg ip
  % Survival: 60%
S. marcescens; S. marcescens SMS003, unmodified parent peptide
  MIC, Peptide: >128 µg/mL
S. marcescens; S. marcescens strain SBSM1
  MIC: >128 µg/mL
